Source: PubChem BioAssay (NCI)
Several values for one entry are separate records, joined by “and”; a condition that tells them apart may be missing. Equal values may be shown once.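 Compound exposure: 48 hours, 5 concentrations, 96-well plates. GI50 is the concentration that inhibits growth by half. TGI: concentration producing complete growth inhibition.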

Assays:
Assay in all cases: inhibition of tumour cell growth, NCI panel, 48 h
[1] = system: A498 renal
[2] = system: RPMI-8226 leukemia
[3] = system: SK-MEL-2 melanoma
[4] = system: M14 melanoma
[5] = system: SK-OV-3 ovarian
[6] = system: MCF7 breast
[7] = system: HCC-2998 colon
[8] = system: CAKI-1 renal
[9] = system: A549 NSCLC
[10] = system: HL-60(TB) leukemia

Compound	GI50 [1] [µM]	TGI [1] [µM]	GI50 [2] [µM]	TGI [2] [µM]	GI50 [3] [µM]	TGI [3] [µM]	GI50 [4] [µM]	TGI [4] [µM]	GI50 [5] [µM]	TGI [5] [µM]	GI50 [6] [µM]	TGI [6] [µM]	GI50 [7] [µM]	TGI [7] [µM]	GI50 [8]	TGI [8] [µM]	GI50 [9] [µM]	TGI [9] [µM]	GI50 [10] [µM]	TGI [10]
O=c1[nH]c2cc(Cl)c(Cl)cc2n2cc3ccccc3c12	15.8	29.9	22.3	49.2	24.9	54	23	39.7	18	33.1	21.4	39.5	0.813	18.6	20.6 µM	34.9	18.9	34.5		
COc1ccc(NC(=O)c2sc3nc4c(cc3c2N)CCCC4)cc1	0.237	1.73	0.484	12.1	0.369	4.69	0.254	1.28	1.92	> 100	0.348	> 100	3.6	> 100			1.18	> 100	0.252	0.624 µM
CN(C)C/C=C/C(=O)Nc1ccc(C(=O)N2CCC[C@@H](Nc3ncc(Cl)c(-c4c[nH]c5ccccc45)n3)C2)cc1	0.192	0.495	0.422	3.83	0.115	0.392	0.359	2.16	0.395	12.4	0.0427	7.16	0.107	1.2	1.65 µM	12.1	0.581	11	0.0353	0.173 µM
C[C@@H]1C/C=C\C(=O)O[C@H](/C=C/C#C/C=C/C(C)(C)[C@@H](O)c2cccc(O)c2Br)[C@@H](C)/C=C/[C@H](C)C[C@H](OC(N)=O)C1	0.543	18.7	0.0411	6.45	0.0346	1.01	0.0236	0.0639	13.3	27.3	0.0613	15.5	0.054	11.8	0.0462 µM	13.8	0.0332	19.5	0.0382	2.26 µM
COc1ccc(C2ONC3=NCCN32)cc1 (stereo not given)	> 100	> 100			> 100	> 100	> 100	> 100	40.7	> 100	61.1	> 100	49.7	> 100	48.2 µM	> 100	86.9	> 100		
Cc1cc(NC(=O)NC(=O)c2ccccc2N(C)C)ccc1Oc1ncc(Br)cn1		6.71	0.517	39.4		> 46.4	0.428	> 63.1		16.8		29.2	1.1	11.8	0.588 µM and 0.402 µM	> 100	0.584	> 63.1	0.0879	0.388 µM and 0.981 µM
COc1ccc(C(=O)C[C@]2(O)C(=O)Nc3c(Cl)ccc(Cl)c32)cc1	0.295	1.52	0.589	30	0.627	> 100	0.321	> 100	1.89	> 100	0.383	> 100	1.96	> 100	0.492 µM	> 100	0.766	> 100	0.343	3.06 µM
Cc1cc(=O)oc2cc(OCCn3c(C)nn(-c4ccc(Cl)cc4)c3=O)ccc12	1.13	31.9	11	> 100	18.2	> 100	2.36	> 100	3.36	48.8	2.7	> 100	3.59	> 100	> 100 µM	> 100	6.07	> 100		
COc1ccc2c(c1)nc1n2C(c2ccc(F)cc2)SC1 (stereo not given)			14.8	66.3	20.4	65	26.3	83.5	22.4	> 100	18.5	> 100	18.4	57.1	26.2 µM	74.5	25.4	> 100	28.4	> 100 µM
Cn1cnc([N+](=O)[O-])c1Sc1nc(N)nc2nc[nH]c12	> 23.7	> 100	3.52	> 94	6.16	> 100	1.28	> 100	0.727	> 100	2.47	> 100	3.79	> 66.3	2.72 µM	> 100	13.1	> 100	5.69	> 100 µM
COc1ccccc1/C=C\C(=O)c1ccccc1	16.3	35.7	2.8	24.7	4.36	14.6	12.5	25.6	13.7	26.5	1.92	12.6	7.34	19.9	3.68 µM	12.2	19.5	41.9	5.06	45.6 µM
O=C(O)Cn1ccnc1[N+](=O)[O-]		> 100		> 100		> 100		> 100		> 100		> 100		> 100		> 100		> 100		> 100 µM
O=C(Nc1ccccc1O)c1ccc(CNC(=O)c2ccsc2Nc2ccnc(C(F)(F)F)c2)cc1	0.787	3.01	1.14	6.72	2.1	6.26	2.61	7.03	5.59	45.6	2.03	10.4	1.84	4.33	2.62 µM	9.96	3.21	12.5	2.86	9.32 µM
COc1cc(O)c(C(C)=O)c(O)c1		> 100				> 100		> 100		> 100		> 100		> 100				> 100		
CC1(C)C2CCC13C(=O)C1OC3(C2)C2C(=O)c3c(O)cccc3C(=O)C12 (stereo not given)	1.89	3.49	0.177	0.441	3.69	> 100	3.24	12.2	10.9	23.9	3.37	15.4	1.94	4.16	1.4 µM	2.95	1.24	4.57	0.355	1.2 µM
CC[C@@]1(O)C(=O)OCc2c1cc1n(c2=O)Cc2cc3c(N)cccc3nc2-1	0.0896	0.611		4.72		1.99	0.0042	0.292		1.68	0.00482	4.85	0.0239	1.39	0.00849 µM	0.858	0.0701	2.31		0.51 µM
CCOCNc1ccc(N2C(=O)/C(=C/c3ccc(N(CC)CC)cc3)N=C2c2ccccc2)cc1	35.4	> 100	2.83	> 100	13.7	31	> 100	> 100	26.1	82.9	36.5	> 100	> 100	> 100	12.5 µM	56.8	11.4	> 100	25	> 100 µM
CCCn1cnc2c(SCc3ccccc3)nc(N)nc21	19.7	75.2	41.6	> 100			> 100	> 100	> 100	> 100	> 100	> 100	> 100	> 100	89.3 µM	> 100	77.8	> 100	65.3	> 100 µM
COc1ccc(/C=C(/C(=O)n2cnnn2)c2cc(OC)c(OC)c(OC)c2)cc1	4.26	> 100	3.68	> 100	6.64	> 100	2.58	> 100	5.26	> 100	2.63	> 100			4.15 µM	> 100	3.97	> 100	2.77	> 100 µM
Cn1cc(CO)c2ccccc21	17.6	73.1	99.9	> 100	36.2	> 100	31.6	> 100	77.5	> 100	26.9	> 100	> 100	> 100	18.3 µM	> 100	64.3	> 100	32.5	> 100 µM
NC(=O)c1cc(I)ccc1NC(=O)COc1ccccc1	1.27	7.26	0.679	> 100	0.566	16.3	0.403	> 100	3.21	> 69.1	0.279	> 100	2.5	> 100	0.547 µM	> 100	0.63	> 100	0.335	27.8 µM
CC(C)(C)[Si](C)(C)OCC1OC(n2cnc3c(N)ncnc32)C(O)C1O (stereo not given)				> 100		> 100		> 100		> 100		> 100				> 100		> 100		> 100 µM
O=C(Nc1ccc(Cl)cc1)Nc1ccccc1CNc1nc(Nc2ccc(OCCN3CCCC3)cc2)ncc1Cl	5.22	12.3	1.24	3.19	8.99	17.4	0.832	1.68			0.895	1.84	1.22	3.38	7.44 µM	14	1.49	4.49	1.05	2.19 µM
CC12OC(C(=O)C13CCC3)C1C(=O)c3ccccc3C(=O)C12 (stereo not given)			26.5	> 100	> 100	> 100	> 100	> 100	> 100	> 100	> 100	> 100			32.7 µM	> 100	> 100	> 100	52	> 100 µM
O=c1oc2ccc(F)cc2c(=O)n1-c1ccc(Br)cc1F	0.184	0.72	0.27	1.05	0.46	3.98	0.434	5.08	0.427	6.25	2.04	> 29.5	2.9	10.8	0.393 µM	3.69	2.29	> 100		
CCC(=O)c1cc([N+](=O)[O-])c(Br)s1	17.3	31.3	20.2	89			3.13	10.6	19.4	33.9	2.89	12.3	15.2	31	1.66 µM	3.41	5.27	19.6		
Fc1cc(-c2nnc3n2N=C(c2ccc(Cl)cc2Cl)CS3)c(Cl)cc1Cl			25.3	95.7	> 100	> 100	37.5	> 100	48	> 100	31.3	> 100	35	> 100	35.9 µM	> 100	58	> 100	> 100	> 100 µM
COc1ccc(-c2nc3c(c(=O)n2C(C)=O)C(c2ccc(Cl)cc2)c2sc4c(Cl)cccc4c2O3)cc1 (stereo not given)			0.529	5.1	0.374	1.69	0.239	0.973	0.349	2.09	0.151	1.37	0.68	2.48	0.49 µM	4.16	0.625	2.2	0.3	0.982 µM
